The source of these data is patent publication US20090149440A1, “NOVEL PYRIDONECARBOXYLIC ACID DERIVATIVES OR SALTS THEREOF” (priority 2004, published 2009).

Structures are written as SMILES. In brackets after ≈: the same amount, converted by molar mass. Some results are limits rather than exact numbers.

Data set [1] is described as follows: Pharmacokinetics: absorbability after oral administration, serum level. It counts as in vivo, dogs. As to conditions: for Cmax / Tmax / half-life / AUC: dog, male beagle dogs, fasted, 10 mg/kg oral, 0.5% methylcellulose suspension, serum; for AUC: read-out: AUCO to 8 h. The protocol:
Absorbability of the compounds shown in Table 4 was investigated in dogs. Specifically, a 0.5% methylcellulose suspension of each test compound (10 mg/kg) was forcedly orally administered to 2- to 4-years old male beagle dogs which had been fasted for 16 to 17 hours. The blood was collected from each dog at 0.25, 0.5, 1, 2, 4, 6, 8, and 24 hours after the administration, and the serum level of the test compound was determined to evaluate absorbability of the compound.

In another data set the test system is human serum proteins. The data set can be described thus: Binding rate to proteins by ultrafiltration method. The format is in vitro ADME. Conditions: 5 μg/mL, 37° C. for 30 minutes. The procedure: Binding rate to proteins of the compounds shown in Table 3 was determined by ultrafiltration method. Specifically, a 0.5 mg/mL DMSO solution of each compound was diluted with human serum or a 0.4% phosphate buffer (pH: 7.4 containing 0.5% NaCl) to thereby prepare a 5 μg/mL solution. The human serum solution was incubated at 37° C. for 30 minutes and centrifugally filtrated through a filter (pore size: 0.22 μm). A portion of the serum filtrate and the phosphate buffer solution were applied to an HPLC system, and the peak area of the compound was measured. Binding rate of each compound to human serum proteins was calculated by the following equation 1: Binding rate (%)=(A−B)×100/A (equation 1) A: Peak area (in phosphate buffer) B: Peak area (in serum filtrate)

The subject of another data set is M. luteus IFO12708. The data set is described as follows: Antibacterial activity, minimum inhibitory concentration (standard method of the Japanese Society of Chemotherapy). The format is cell-based. As to conditions: Micrococcus luteus. The protocol: (§1) Minimum inhibitory concentration (MIC: μg/mL) of the compounds shown in Table 1 was determined according to the standard method of the Japanese Society of Chemotherapy (CHEMOTHERAPY 29(1), 76, 1981).

A further data set has as its system MRSA W44. The description is as above. It counts as cell-based. As to conditions: Staphylococcus aureus. The procedure:
as §1

The next data set concerns P. mirabilis IFO3849. The data set is described as above. The format is cell-based. Conditions: Proteus mirabilis. The procedure: as §1
For another data set, the system named is S. haemolytlcus 67. Described as above. The format is cell-based. The procedure: as §1
The subject of the next data set is female ICR mice. The data set can be described thus: Phototoxicity test: ear abnormalities after UV irradiation. The format is in vivo. Further details: key to Phototoxicity score: normal (0 point); slight erythema (score 1); medium erythema (score 2); serious erythema or edema (score 3). As to conditions: 40 mg/10 mL/kg intravenously, UV 320 to 400 nm for four hours. The procedure:
Each test compound was intravenously administered (40 mg/10 mL/kg) to female ICR mice (5- to 6-weeks old), and the mice were irradiated with UV-rays (320 to 400 nm, 1.8 mW/cm^2/sec) for four hours. Abnormalities induced in the ear of each mouse were observed immediately after (0 hour), 24 hours after, and 48 hours after the irradiation. The abnormality was evaluated according to the following criteria: normal (0 point), slight erythema (score 1), medium erythema (score 2), and serious erythema or edema (score 3).

By Cmax is commonly meant the highest concentration seen after dosing. For orientation: Tmax means the time from dosing to the highest level. One may read the half-life as the time in which the quantity being followed falls by half. In general, melting point refers to the temperature of the solid-liquid transition. What is called MIC is the smallest concentration in the dilution series that meets the test's criterion for growth inhibition.

For the compound `CCNC1CN(c2c(F)cc3c(=O)c(C(=O)O)cn(-c4nc(N)c(F)cc4F)c3c2Br)C1.O=C(O)/C=C\C(=O)O` [compound 4, 1-(6-amino-3,5-difluoropyridin-2-yl) 8-bromo-7-(3-ethylaminoazetidin-1-yl)-6-fluoro-4-oxo-1,4-dihydroquinolin-3-carboxylic acid maleic acid salt], in data set [1], the peak level (Cmax) was 3730 ng/mL, the time to peak (Tmax) was 1 h, the half-life is 4.3 h and the AUC came out at 17500 ng·h/mL.
On to `Cc1c(N2CC(NC(C)(C)C)C2)c(F)cc2c(=O)c(C(=O)O)cn(-c3nc(N)c(F)cc3F)c12` [compound 6, 1-(6-Amino-3,5-difluoropyridin-2-yl)-7-(3-tert-butylaminoazetidin-1-yl)-6-fluoro-8-methyl-4-oxo-1,4-dihydroquinolin-3-carboxylic acid], for which the melting point is ≥ 193 °C (dec.). Further, the “Binding rate to proteins” value in the data set with human serum proteins is given as 26.8%.
With `CNc1nc(-n2cc(C(=O)O)c(=O)c3cc(F)c(N4CC(NC(C)C)C4)c(C)c32)c(F)cc1F` [compound 7, 1-(3,5-Difluoro-6-methylaminopyridin-2-yl)-6-fluoro-7-(3-isopropylaminoazetidin-1-yl)-8-methyl-4-oxo-1,4-dihydroquinolin-3-carboxylic acid], the melting point is ≥ 218 °C (dec.).
In the case of `CC(C)NC1CN(c2c(F)cc3c(=O)c(C(=O)O)cn(-c4nc(N)c(F)cc4F)c3c2Br)C1.O=C(O)/C=C\C(=O)O` [compound 12, 1-(6-amino-3,5-difluoropyridin-2-yl)-8-bromo-6-fluoro-7-(3-isopropylaminoazetidin-1-yl)-4-oxo-1,4-dihydroquinolin-3-carboxylic acid maleic acid salt], the “Binding rate to proteins” value in the data set with human serum proteins was 64.0%. Moreover, in data set [1], the Cmax was 5250 ng/mL, the time to peak (Tmax) was 1 h, the half-life is 5.8 h and the AUC turned out to be 30900 ng·h/mL. In data set [1] (dogs, oral, compared with comparative compounds 3 and 4), the “Pharmacokinetics (in words)” value is “remarkably improved”.
With `CNc1nc(-n2cc(C(=O)O)c(=O)c3cc(F)c(N4CC(NC(C)C)C4)c(Cl)c32)c(F)cc1F` [compound 9, 8-Chloro-1-(3,5-difluoro-6-methylaminopyridin-2-yl)-6-fluoro-7-(3-isopropylaminoazetidin-1-yl)-4-oxo-1,4-dihydroquinolin-3-carboxylic acid], the melting point is ≥ 244 °C (dec.).
In the case of `CC(C)NC1CN(c2c(F)cc3c(=O)c(C(=O)O)cn(-c4nc(N)c(F)cc4F)c3c2Br)C1.CS(=O)(=O)O` [compound 13, 1-(6-Amino-3,5-difluoropyridin-2-yl)-8-bromo-6-fluoro-7-(3-isopropylaminoazetidin-1-yl)-4-oxo-1,4-dihydroquinolin-3-carboxylic acid methanesulfonic acid salt], the melting point is ≥ 224 °C (dec.).
As to `CNC1CN(c2c(F)cc3c(=O)c(C(=O)O)cn(-c4nc(N)c(F)cc4F)c3c2Br)C1.O=C(O)/C=C\C(=O)O` [compound 3, 1-(6-amino-3,5-difluoropyridin-2-yl) 8-bromo-6-fluoro-7-(3-methylaminoazetidin-1-yl)-4-oxo-1,4-dihydroquinolin-3-carboxylic acid maleic acid salt], in data set [1], the concentration peaked (Cmax) at 1490 ng/mL, the Tmax is 1 h, the half-life is 3.2 h and the AUC turned out to be 7600 ng·h/mL.
Regarding `CC(C)NC1CN(c2c(F)cc3c(=O)c(C(=O)O)cn(-c4nc(N)c(F)cc4F)c3c2Br)C1` [compound 1, 1-(6-Amino-3,5-difluoropyridin-2-yl)-8-bromo-6-fluoro-7-(3-isopropylaminoazetidin-1-yl)-4-oxo-1,4-dihydroquinolin-3-carboxylic acid], the MIC against M. luteus IFO12708 is 0.12 µg/mL (≈ 0.228 µM); against MRSA W44, 0.03 µg/mL (≈ 0.057 µM); against P. mirabilis IFO3849 it was 0.25 µg/mL (≈ 0.475 µM); in the data set with S. haemolytlcus 67, 4 µg/mL (≈ 7.6 µM). Further, the Phototoxicity incidence with female ICR mice (0 hour after irradiation), in the data set on female ICR mice (24 hours after irradiation) and in the data set with female ICR mice (48 hours after irradiation) was 0/3 throughout. In addition, the Phototoxicity score in the data set on female ICR mice (0 hour after irradiation), in the data set with female ICR mice (24 hours after irradiation) and with female ICR mice (48 hours after irradiation) was 0 each time. In addition, the “Binding rate to proteins” value in the data set on human serum proteins came to 64.0%.
For `CC(C)NC1CN(c2c(F)cc3c(=O)c(C(=O)O)cn(-c4nc(N)c(F)cc4F)c3c2Cl)C1` [compound 2, 1-(6-Amino-3,5-difluoropyridin-2-yl)-8-chloro-6-fluoro-7-(3-isopropylaminoazetidin-1-yl)-4-oxo-1,4-dihydroquinolin-3-carboxylic acid], the melting point is ≥ 205 °C (dec.).
Same read-out and setting: to `CCNc1nc(-n2cc(C(=O)O)c(=O)c3cc(F)c(N4CC(NC(C)C)C4)c(C)c32)c(F)cc1F` [compound 8, 1-(6-Ethylamino-3,5-difluoropyridin-2-yl)-6-fluoro-7-(3-isopropylaminoazetidin-1-yl)-8-methyl-4-oxo-1,4-dihydroquinolin-3-carboxylic acid] belongs ≥ 202 °C (dec.); to `CNc1nc(-n2cc(C(=O)O)c(=O)c3cc(F)c(N4CC(NC(C)C)C4)c(Br)c32)c(F)cc1F` [compound 11, 8-Bromo-1-(3,5-difluoro-6-methylaminopyridin-2-yl)-6-fluoro-7-(3-isopropylaminoazetidin-1-yl)-4-oxo-1,4-dihydroquinolin-3-carboxylic acid], ≥ 220 °C (dec.); to `CC(C)Nc1nc(-n2cc(C(=O)O)c(=O)c3cc(F)c(N4CC(NC(C)C)C4)c(Cl)c32)c(F)cc1F` [compound 10, 8-Chloro-1-(3,5-difluoro-6-isopropylaminopyridin-2-yl)-6-fluoro-7-(3-isopropylaminoazetidin-1-yl)-4-oxo-1,4-dihydroquinolin-3-carboxylic acid], ≥ 248 °C (dec.).
Still for that read-out and setting: to `CC(C)NC1CN(c2c(F)cc3c(=O)c(C(=O)O)cn(-c4nc(N)c(F)cc4F)c3c2Br)C1.Cl` belongs ≥ 210 °C (dec.).
As to `CCc1c(N2CC(NC(C)C)C2)c(F)cc2c(=O)c(C(=O)O)cn(-c3nc(N)c(F)cc3F)c12` [compound 3, 1-(6-Amino-3,5-difluoropyridin-2-yl)-6-fluoro-7-(3-isopropylaminoazetidin-1-yl)-8-ethyl-4-oxo-1,4-dihydroquinolin-3-carboxylic acid], the melting point is ≥ 238 °C (dec.). For the same compound, the “Binding rate to proteins” value with human serum proteins worked out at 44.3%.
`CCNC1CN(c2c(F)cc3c(=O)c(C(=O)O)cn(-c4nc(N)c(F)cc4F)c3c2Br)C1` [compound 2, 1-(6-amino-3,5-difluoropyridin-2-yl) 8-bromo-7-(3-ethylaminoazetidin-1-yl)-6-fluoro-4-oxo-1,4-dihydroquinolin-3-carboxylic acid]: the MIC in the data set on M. luteus IFO12708 amounted to 0.25 µg/mL (≈ 0.488 µM); against MRSA W44, 0.06 µg/mL (≈ 0.117 µM); with P. mirabilis IFO3849 it was 0.25 µg/mL (≈ 0.488 µM); against S. haemolytlcus 67, 8 µg/mL (≈ 15.6 µM). Also, the Phototoxicity incidence in the data set with female ICR mice (0 hour after irradiation), in the data set with female ICR mice (24 hours after irradiation) and in the data set on female ICR mice (48 hours after irradiation) was 0/3 in each case. The Phototoxicity score with female ICR mice (0 hour after irradiation), in the data set with female ICR mice (24 hours after irradiation) and with female ICR mice (48 hours after irradiation) was 0 in each case. The “Binding rate to proteins” value in the data set on human serum proteins was 62.8%.
Regarding `CC(C)(C)NC1CN(c2c(F)cc3c(=O)c(C(=O)O)cn(-c4nc(N)c(F)cc4F)c3c2Br)C1` [compound 4, 1-(6-Amino-3,5-difluoropyridin-2-yl)-8-bromo-7-(3-tert-butylaminoazetidin-1-yl)-6-fluoro-4-oxo-1,4-dihydroquinolin-3-carboxylic acid], the melting point was ≥ 225 °C (dec.). Besides, the “Binding rate to proteins” value in the data set with human serum proteins was 44.9%.
Take `CC(C)(C)NC1CN(c2c(F)cc3c(=O)c(C(=O)O)cn(-c4nc(N)c(F)cc4F)c3c2Cl)C1` [compound 5, 1-(6-Amino-3,5-difluoropyridin-2-yl)-7-(3-tert-butylaminoazetidin-1-yl)-8-chloro-6-fluoro-4-oxo-1,4-dihydroquinolin-3-carboxylic acid]: the melting point was ≥ 250 °C (dec.).
